Experimental data from PubChem BioAssay (NCI).
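Five compound concentrations were applied to cells in 96-well plates for 48 hours; endpoints were derived by simple linear interpolation of the resulting dose-response curve. The concentration for full growth arrest is given as TGI.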

Columns and labels:
Experiment in all cases: NCI anticancer screen, dose series, 48 h
786-0 renal = test system: 786-0 renal
A498 renal = test system: A498 renal
A549 NSCLC = test system: A549 NSCLC
ACHN renal = test system: ACHN renal
BT-549 breast = test system: BT-549 breast
CCRF-CEM leukemia = test system: CCRF-CEM leukemia
EKVX NSCLC = test system: EKVX NSCLC
HCC-2998 colon = test system: HCC-2998 colon
HL-60(TB) leukemia = test system: HL-60(TB) leukemia
MDA-MB-231 breast = test system: MDA-MB-231 breast
MOLT-4 leukemia = test system: MOLT-4 leukemia
NCI-H460 lung = test system: NCI-H460 lung
OVCAR-5 ovarian = test system: OVCAR-5 ovarian
OVCAR-8 ovarian = test system: OVCAR-8 ovarian
SF-268 CNS = test system: SF-268 CNS
SF-295 CNS = test system: SF-295 CNS
T-47D breast = test system: T-47D breast
HOP-92 NSCLC = test system: HOP-92 NSCLC
NCI-H522 lung = test system: NCI-H522 lung
SR leukemia = test system: SR leukemia

| SMILES | TGI (786-0 renal) [µM] | TGI (A498 renal) [µM] | TGI (A549 NSCLC) [µM] | TGI (ACHN renal) [µM] | TGI (BT-549 breast) [µM] | TGI (CCRF-CEM leukemia) [µM] | TGI (EKVX NSCLC) [µM] | TGI (HCC-2998 colon) [µM] | TGI (HL-60(TB) leukemia) [µM] | TGI (MDA-MB-231 breast) [µM] | TGI (MOLT-4 leukemia) [µM] | TGI (NCI-H460 lung) [µM] | TGI (OVCAR-5 ovarian) [µM] | TGI (OVCAR-8 ovarian) [µM] | TGI (SF-268 CNS) [µM] | TGI (SF-295 CNS) [µM] | TGI (T-47D breast) [µM] | TGI (HOP-92 NSCLC) [µM] | TGI (NCI-H522 lung) [µM] | TGI (SR leukemia) [µM] |
| --- | --- | --- | --- | --- | --- | --- | --- | --- | --- | --- | --- | --- | --- | --- | --- | --- | --- | --- | --- | --- |
| CC1=C(c2ccc(C)cc2)NC(=S)C(C)C(c2ccc(C)cc2)=N1 (configuration not stated) | > 100 | > 100 | > 100 | > 100 | > 100 | > 100 | > 100 | > 100 | > 100 | > 100 | > 100 | > 100 | > 100 | > 100 | > 100 | > 100 | > 100 | – | – | – |
| C=CCN1C[C@@H](C)N([C@@H](c2ccccc2)c2ccc(C(=O)N(CC)CC)cc2)C[C@@H]1C | > 100 | > 100 | > 100 | > 100 | > 100 | – | > 100 | – | > 100 | > 100 | > 100 | – | > 100 | > 100 | > 100 | > 100 | > 100 | 89 | > 100 | > 100 |
| CC(C)N(C(=O)c1ccc(NCc2cc(O)ccc2O)cc1)C(C)C | 26.6 | 62.2 | > 100 | 26.7 | 30.7 | > 100 | 28.6 | – | > 100 | 32 | > 100 | 34.6 | 43.8 | 35.4 | 36.2 | 46 | 40.7 | 24.9 | – | > 100 |
| Cc1ccc(S(=O)(=O)c2ccsc2NC(=O)c2ccccc2)cc1 | > 79.6 | > 100 | > 100 | > 79.7 | > 100 | – | > 100 | > 100 | – | > 79.4 | > 100 | > 100 | > 100 | 98.5 | > 82.5 | > 100 | > 100 | > 100 | > 100 | > 100 |
| NN/C(=N\S(=O)(=O)c1cccc2nsnc12)Nc1ccc(Cl)cc1 | > 100 | > 100 | > 100 | > 100 | > 100 | > 100 | > 100 | – | > 100 | > 100 | > 100 | > 100 | > 100 | > 100 | > 100 | > 100 | > 100 | > 100 | – | > 100 |
| Cc1cn(C2CC(N=[N+]=[N-])C(CO)O2)c(=O)n(CCCCO)c1=O (configuration not stated) | > 100 | > 100 | > 100 | > 100 | > 100 | > 100 | > 100 | > 100 | > 100 | > 100 | > 100 | > 100 | > 100 | > 100 | > 100 | > 100 | > 100 | > 100 | > 100 | – |
| O=C1c2ccccc2-n2c1nc1cc(Cl)ccc1c2=O | > 100 | > 100 | > 100 | > 100 | > 100 | 9.2 | > 100 | > 100 | – | > 100 | > 100 | > 100 | > 100 | > 100 | > 100 | > 100 | 48.8 | > 100 | > 100 | > 100 |
| CC1=C2c3ccccc3N(S(=O)(=O)c3ccccc3)[C@H]2[C@H](C(=O)N2C3CC4CC[C@@]3(CS2(=O)=O)C4(C)C)CC1 (some centres not stated) | > 100 | > 100 | > 100 | > 100 | 81.7 | > 100 | > 100 | – | 21.9 | > 100 | 75.9 | > 100 | > 100 | > 100 | > 100 | > 100 | > 100 | > 100 | 42.6 | > 100 |
| Cc1ccc(Nc2cc(=O)[nH]c(=O)[nH]2)cc1CS | > 100 | > 100 | > 100 | > 100 | > 100 | > 100 | > 100 | > 100 | – | > 100 | > 100 | > 100 | > 100 | > 100 | > 100 | > 100 | > 100 | > 100 | > 100 | > 100 |
| CCCCC1=CC1(C#N)[N+](=O)[O-] (configuration not stated) | > 100 | > 100 | > 100 | > 100 | > 100 | 63.6 | > 100 | > 100 | – | > 100 | 67.5 | > 100 | > 100 | > 100 | > 100 | > 100 | > 100 | > 100 | > 100 | > 100 |
| COc1cc2c(cc1O)-c1c(OC)c(O)cc3c1C(C2)N(C)CC3 (configuration not stated) | > 100 | > 100 | > 100 | > 100 | > 100 | > 100 | > 100 | – | > 100 | > 100 | > 100 | > 100 | > 100 | > 100 | > 100 | > 100 | > 100 | > 100 | > 100 | > 100 |
